In article PMC11822212, “High-throughput screening identifies Aurora kinase B as a critical therapeutic target for Merkel cell carcinoma” (Nature Communications, 2025):
Like-named read-outs stand apart in the source and are kept apart here.

Tests used:
MCC13 cells (VN-MCC) = test: qHTS cell viability (CellTiter-Glo, 72 h; primary and follow-up small molecule screen); type: cell-based, human
MCC26 cells (VN-MCC) = test: as above; type: cell-based, human
UISO cells (VN-MCC) = test: as above; type: cell-based, human
WAGA cells (VP-MCC) = test: as above; type: cell-based, human
MKL-1 cells (VP-MCC) = test: as above; type: cell-based, human
MKL-2 cells (VP-MCC) = test: as above; type: cell-based, human
HACAT cells = test: qHTS cell viability (CellTiter-Glo, 72 h; primary screen), control cell line; type: cell-based, human
HEK293T cells = test: as above; type: cell-based, human
NIH-3T3 cells = test: as above; type: cell-based, mouse
CRL-7250 cells = test: as above; type: cell-based
[1] = tested on: MCC cell lines (WAGA, MKL-1, MKL-2, MCC13, MCC26, UISO); test: qHTS cell viability, all six MCC cell lines as a group (mean AUC, MCC.avg); type: cell-based, human
[2] = tested on: VP-MCC cell lines (WAGA, MKL-1, MKL-2); test: qHTS cell viability, VP-MCC cell lines as a group (mean AUC, VP.MCC.avg); type: cell-based, human
[3] = tested on: VN-MCC cell lines (MCC13, MCC26, UISO); test: qHTS cell viability, VN-MCC cell lines as a group (mean AUC, VN.MCC.avg); type: cell-based, human
[4] = tested on: control cell lines (HACAT, HEK293T, CRL-7250, NIH-3T3); test: qHTS cell viability, control cell lines as a group (mean AUC, Control.avg); type: cell-based
[5] = tested on: six MCC cell lines and four control cell lines; test: qHTS cell viability, all 10 cell lines screened; type: cell-based
[6] = NPC library, qHTS dose-response AUC, MCC13
[7] = NPC library, qHTS dose-response AUC, UISO
[8] = NPC library, qHTS dose-response AUC, WAGA
[9] = NPC library, qHTS dose-response AUC, MKL1
[10] = NPC library, qHTS dose-response AUC, MKL2
[11] = NPC library, qHTS dose-response AUC, HACAT control
[12] = NPC library, qHTS dose-response AUC, NIH3T3 control
[13] = NPC library, qHTS dose-response AUC, CRL7250 control
[14] = NPC library, mean AUC of six MCC cell lines
[15] = NPC library, mean AUC of VP-MCC cell lines
[16] = NPC library, therapeutic window: Control avg AUC minus VP-MCC avg AUC
[17] = NPC library, mean AUC of VN-MCC cell lines
[18] = NPC library, therapeutic window: Control avg AUC minus VN-MCC avg AUC
[19] = NPC library, mean AUC of control cell lines
[20] = NPC library, therapeutic window: Control avg AUC minus MCC avg AUC
[21] = MIPE library, 11-point DRC, sheet S2E
[22] = MIPE library, 11-point DRC, control cell line, sheet S2E

**Q.** How did the MCC13_AUC (MCC13 cells (VN-MCC); [6]) turn out when `[H]/N=C(\N/C(=N/[H])NCCCCCCNC(=N)NC(=N)Nc1ccc(Cl)cc1)Nc1ccc(Cl)cc1` [Chlorhexidine] was run?
**A.** 433.192

**Q.** And the MCC26_AUC (MCC26 cells (VN-MCC); NPC library, qHTS dose-response AUC, MCC26)?
**A.** 406.333

**Q.** What about the UISO_AUC (UISO cells (VN-MCC); [7]) of the same compound?
**A.** 378.135

**Q.** And the WAGA_AUC (WAGA cells (VP-MCC); [8])?
**A.** 400.622

**Q.** What about the MKL1_AUC (MKL-1 cells (VP-MCC); [9]) of the same compound?
**A.** 377.448

**Q.** What about the MKL2_AUC (MKL-2 cells (VP-MCC); [10]) of the same compound?
**A.** 345.753

**Q.** What about the HACAT_AUC (HACAT cells; [11]) of the same compound?
**A.** 458.563

**Q.** What about the HEK293T_AUC (HEK293T cells; NPC library, qHTS dose-response AUC, HEK293T control) of the same compound?
**A.** 398.25

**Q.** What about the NIH3T3_AUC (NIH-3T3 cells; [12]) of the same compound?
**A.** 459.651

**Q.** What about the CRL7250_AUC (CRL-7250 cells; [13]) of the same compound?
**A.** 454.576

**Q.** And the MCC_Avg_AUC ([1]; NPC library, mean AUC of all 6 MCC cell lines)?
**A.** 390.247

**Q.** What about the MCC_Avg_AUC [1, 14] of the same compound?
**A.** 390.247

**Q.** What about the Control-VP-MCC ([2]; Control AUC minus VP-MCC AUC) of the same compound?
**A.** 68.1526

**Q.** And the VP-MCC_Avg_AUC [2, 15]?
**A.** 374.608

**Q.** What about the Control-VP-MCC [2, 16] of the same compound?
**A.** 68.1526

**Q.** What about the Control-VN-MCC ([3]; Control AUC minus VN-MCC AUC) of the same compound?
**A.** 36.8736

**Q.** And the VN-MCC_Avg_AUC [3, 17]?
**A.** 405.887

**Q.** What about the Control-VN-MCC [3, 18] of the same compound?
**A.** 36.8736

**Q.** What about the Control_Avg_AUC [4, 19] of the same compound?
**A.** 442.76

**Q.** What about the Control-MCC [5, 20] of the same compound?
**A.** 52.5131

**Q.** With `C=CC(=O)Nc1cccc(Nc2nc(NC3CCC(N(C)C)CC3)nc3c2ncn3C(C)C)c1` (centres unmarked) [HMSL10084] as the compound, how does the MCC13_AUC (MCC13 cells (VN-MCC); [21]) read?
**A.** 424.628

**Q.** What about the MCC26_AUC (MCC26 cells (VN-MCC); [21]) of the same compound?
**A.** 381.337

**Q.** And the UISO_AUC (UISO cells (VN-MCC); [21])?
**A.** 276.887

**Q.** And the WAGA_AUC (WAGA cells (VP-MCC); [21])?
**A.** 181.546

**Q.** And the MKL1_AUC (MKL-1 cells (VP-MCC); [21])?
**A.** 144.905

**Q.** What about the MKL2_AUC (MKL-2 cells (VP-MCC); [21]) of the same compound?
**A.** 208.594

**Q.** What about the HACAT_AUC (HACAT cells; [22]) of the same compound?
**A.** 381.06

**Q.** What about the HEK293T_AUC (HEK293T cells; [22]) of the same compound?
**A.** 317.706

**Q.** What about the NIH3T3_AUC (NIH-3T3 cells; [22]) of the same compound?
**A.** 437.409

**Q.** What about the CRL7250_AUC (CRL-7250 cells; [22]) of the same compound?
**A.** 274.567

**Q.** What about the MCC_Avg_AUC ([1]; MIPE library, mean AUC of six MCC cell lines, sheet S2E) of the same compound?
**A.** 269.649

**Q.** And the Control-VP-MCC ([2]; MIPE library, Control AUC minus VP-MCC AUC (therapeutic window), sheet S2E)?
**A.** 174.338

**Q.** What about the VP-MCC_Avg_AUC ([2]; MIPE library, mean AUC of VP-MCC cell lines, sheet S2E) of the same compound?
**A.** 178.348

**Q.** What about the Control-VN-MCC ([3]; MIPE library, Control AUC minus VN-MCC AUC (therapeutic window), sheet S2E) of the same compound?
**A.** -8.265

**Q.** What about the VN-MCC_Avg_AUC ([3]; MIPE library, mean AUC of VN-MCC cell lines, sheet S2E) of the same compound?
**A.** 360.951

**Q.** And the Control_Avg_AUC ([4]; MIPE library, mean AUC of control cell lines, sheet S2E)?
**A.** 352.686

**Q.** And the Control-MCC ([5]; MIPE library, Control AUC minus MCC AUC (therapeutic window), sheet S2E)?
**A.** 83.0363

**Q.** `CC(C)(O)/C=C/C(=O)[C@](C)(O)[C@H]1[C@H](O)C[C@@]2(C)[C@@H]3CC=C4[C@@H](C=C(O)C(=O)C4(C)C)[C@]3(C)C(=O)C[C@]12C` [Cucurbitacin I] was tested. Which MCC13_AUC (MCC13 cells (VN-MCC)) did it give?
**A.** 297.405

**Q.** What about the MCC26_AUC (MCC26 cells (VN-MCC)) of the same compound?
**A.** 343.064

**Q.** And the UISO_AUC (UISO cells (VN-MCC))?
**A.** 252.668

**Q.** What about the WAGA_AUC (WAGA cells (VP-MCC)) of the same compound?
**A.** 216.289

**Q.** And the MKL1_AUC (MKL-1 cells (VP-MCC))?
**A.** 212.417

**Q.** What about the MKL2_AUC (MKL-2 cells (VP-MCC)) of the same compound?
**A.** 186.366

**Q.** What about the HACAT_AUC (HACAT cells) of the same compound?
**A.** 326.184

**Q.** And the HEK293T_AUC (HEK293T cells)?
**A.** 307.458

**Q.** And the NIH3T3_AUC (NIH-3T3 cells)?
**A.** 387.943

**Q.** And the CRL7250_AUC (CRL-7250 cells)?
**A.** 234.715

**Q.** What about the MCC_Avg_AUC [1] of the same compound?
**A.** 251.368

**Q.** What about the Control-VP-MCC [2] of the same compound?
**A.** 109.051

**Q.** What about the VP-MCC_Avg_AUC [2] of the same compound?
**A.** 205.024

**Q.** What about the Control-VN-MCC [3] of the same compound?
**A.** 16.3626

**Q.** What about the VN-MCC_Avg_AUC [3] of the same compound?
**A.** 297.712

**Q.** What about the Control_Avg_AUC [4] of the same compound?
**A.** 314.075

**Q.** What about the Control-MCC [5] of the same compound?
**A.** 62.7066

**Q.** `C[C@@H]1CN(CCCn2c3ccccc3c3ccccc32)C[C@H](C)N1.Cl.Cl` [Rimcazole dihydrochloride] was tested. Which MCC13_AUC (MCC13 cells (VN-MCC); [6]) did it give?
**A.** 472.84

**Q.** What about the MCC26_AUC (MCC26 cells (VN-MCC); NPC library; qHTS dose-response AUC, MCC26) of the same compound?
**A.** 457.379

**Q.** And the UISO_AUC (UISO cells (VN-MCC); [7])?
**A.** 420.46

**Q.** And the WAGA_AUC (WAGA cells (VP-MCC); [8])?
**A.** 396.152

**Q.** And the MKL1_AUC (MKL-1 cells (VP-MCC); [9])?
**A.** 392.844

**Q.** What about the MKL2_AUC (MKL-2 cells (VP-MCC); [10]) of the same compound?
**A.** 350.893

**Q.** What about the HACAT_AUC (HACAT cells; [11]) of the same compound?
**A.** 421.634

**Q.** What about the HEK293T_AUC (HEK293T cells; NPC library; qHTS dose-response AUC, HEK293T control) of the same compound?
**A.** 453.163

**Q.** And the NIH3T3_AUC (NIH-3T3 cells; [12])?
**A.** 464.02

**Q.** What about the CRL7250_AUC (CRL-7250 cells; [13]) of the same compound?
**A.** 463.168

**Q.** And the MCC_Avg_AUC [1, 14]?
**A.** 415.095

**Q.** And the VP-MCC_Avg_AUC [2, 15]?
**A.** 379.963

**Q.** And the Control-VP-MCC [2, 16]?
**A.** 70.5333

**Q.** What about the VN-MCC_Avg_AUC [3, 17] of the same compound?
**A.** 450.226

**Q.** And the Control-VN-MCC [3, 18]?
**A.** 0.27

**Q.** And the Control_Avg_AUC [4, 19]?
**A.** 450.496

**Q.** And the Control-MCC [5, 20]?
**A.** 35.4016
